The record followed here is ChEMBL document CHEMBL5727703, “Bicyclic hydroxamic acids useful as inhibitors of mammalian histone deacetylase activity” (2020).

The target of this assay is T1, Protein deacetylase HDAC6 (Homo sapiens, UniProt Q9UBN7).
T1 sequence (Q9UBN7 whole entry): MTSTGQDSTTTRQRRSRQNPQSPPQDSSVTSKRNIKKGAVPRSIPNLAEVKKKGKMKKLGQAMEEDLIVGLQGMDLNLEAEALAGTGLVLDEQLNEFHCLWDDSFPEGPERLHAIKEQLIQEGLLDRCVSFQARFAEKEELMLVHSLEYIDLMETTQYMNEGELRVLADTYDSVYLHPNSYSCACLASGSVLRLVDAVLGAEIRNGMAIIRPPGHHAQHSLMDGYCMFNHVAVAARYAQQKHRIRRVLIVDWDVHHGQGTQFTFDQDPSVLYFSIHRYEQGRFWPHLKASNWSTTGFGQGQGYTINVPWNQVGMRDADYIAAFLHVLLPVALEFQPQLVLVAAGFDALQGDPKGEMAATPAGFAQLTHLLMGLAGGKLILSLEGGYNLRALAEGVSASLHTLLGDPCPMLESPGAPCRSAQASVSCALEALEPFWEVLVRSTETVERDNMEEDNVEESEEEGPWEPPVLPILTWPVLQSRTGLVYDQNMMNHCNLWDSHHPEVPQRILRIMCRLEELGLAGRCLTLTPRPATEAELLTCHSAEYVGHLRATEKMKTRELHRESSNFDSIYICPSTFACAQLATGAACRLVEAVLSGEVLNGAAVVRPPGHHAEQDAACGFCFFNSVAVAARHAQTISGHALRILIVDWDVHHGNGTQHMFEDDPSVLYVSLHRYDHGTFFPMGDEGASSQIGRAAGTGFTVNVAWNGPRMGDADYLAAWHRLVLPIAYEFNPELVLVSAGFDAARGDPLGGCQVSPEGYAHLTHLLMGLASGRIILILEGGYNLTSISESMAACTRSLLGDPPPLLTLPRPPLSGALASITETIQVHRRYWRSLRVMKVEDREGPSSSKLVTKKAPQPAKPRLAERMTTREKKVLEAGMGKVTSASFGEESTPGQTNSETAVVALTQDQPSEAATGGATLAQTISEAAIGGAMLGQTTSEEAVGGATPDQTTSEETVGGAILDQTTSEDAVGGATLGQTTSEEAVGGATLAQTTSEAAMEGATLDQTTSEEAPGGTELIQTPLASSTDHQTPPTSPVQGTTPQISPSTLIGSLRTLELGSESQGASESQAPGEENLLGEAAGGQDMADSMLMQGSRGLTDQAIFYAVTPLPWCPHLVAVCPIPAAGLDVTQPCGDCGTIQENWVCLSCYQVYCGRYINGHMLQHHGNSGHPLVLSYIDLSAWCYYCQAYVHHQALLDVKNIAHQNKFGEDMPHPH
The experiment in a line: In Vitro Enzymatic Assay: The assay principle is well known and all necessary reagents like enzymes, substrates, developer and reference compounds are commercially available. Stock solutions (10 mM in DMSO) of compounds were serially diluted 1:3 in 11 concentrations with a top concentration of 200 μM for HDAC1,2,3 and 2 μM for HDAC6 and HDAC8. The enzymatic reactions were conducted in a mixture containing assay buffer, bovine serum albumin, HDAC substrate, and a test compound. After enzymatic reaction, developer was added and after an additional incubation time, fluorescence intensity was measured at an excitation wavelength of 360 nm and an emission wavelength of 460 nm. All experiments were performed in duplicate.

SMILES strings stand for the structures.

As for `Cn1cc(CNCC2CCN(c3nc4cc(C(=O)NO)ccc4o3)CC2)c2ccccc21`, the IC50 was 41 nM.
